Patent publication US20080255079A1, “Therapeutic Use of Nefopam and Analogues Thereof” (priority 2005, published 2008)
Where a name gives a salt, the structure may show the parent alone. Marks after values point to notes of the source that are not given here.

Assays:
[1] = tested on: mice exposed to marbles (marble burying); assay: Marble Burying Test in mouse; format: in vivo; settings: for Number of marbles buried (% change from ctrl): 30 min before test; for antidepressant and anxiolytic activity (in words): ip
Source text: Nefopam and (+)-nefopam have been evaluated in the Marble Burying Test, a model which detects anxiolytic/tranquillizing activity. The method follows that described by Broekkamp et al. (1986—Eur. J. Pharmacol., 126, 223-229). Mice exposed to novel object (marbles) will bury them in the sawdust floor covering. Anxiolytics decrease the number of marbles buried at non-sedative doses.
Mice are individually placed in transparent plastic cages (33×21×18 cm) with 5 cm of sawdust on the floor, and 25 marbles grouped in the centre of the cage. The cage is covered with an inverted plastic cage. Each test cage, together with the marbles, is impregnated with mouse odor beforehand, by leaving 10 mice in the cage for 15 minutes. These mice then play no further role in the experiment. The number of marbles covered by sawdust (⅔ or more) is counted at the end of a 30 minute test.
All compounds were administered i.p. 30 minutes before the test, and compared with a vehicle control group. Clobazam (8 mg/kg i.p.), administered under the same experimental conditions, was used as reference substance.

[2] = tested on: formalin-induced paw licking model in mice; assay: Formalin-induced hyperalgesia (paw licking) in mouse; format: in vivo; settings: for Nociception, hindpaw licking time, early phase: early phase (0-5 min after formalin); for Nociception, hindpaw licking time, early phase / Nociception, hindpaw licking time, late phase: 60 min before formalin, vs vehicle; for Nociception, hindpaw licking time, late phase: late phase (20-30 min after formalin); for licking behaviour compared to vehicle control, first phase (in words): first phase (acute nociceptive pain), at both 60 and 100 mg/kg; for paw licking time compared to vehicle control (in words): po, both phases; for licking behaviour, second phase (in words): second phase (persistent pain states), 100 mg/kg
Description: Nefopam and (+)-nefopam have been evaluated in the formalin-induced paw licking model in mice. […] The late phase seems to be an inflammatory response and is a recognized model of persistent pain. This test may, therefore, be a useful indicator of analgesic efficacy in fibromyalgia. Compounds were evaluated for both an early stage response and a late stage response and compared against morphine as control.
Inflammation was induced by subplantar injection of a 5% formalin solution (0.02 ml) into the mouse right hindpaw (20-25 g male Rj: NMRI). Hindpaw licking time was continuously recorded in a blinded fashion between 0 to 5 minutes (early phase) and between 20 to 30 minutes (late phase) after formalin injection (Hunskaar etal., 1985—J. Neurosci. Methods; 14:69-76).
The test substances and vehicle were orally administered 60 min before formalin injection.

[3] = tested on: mice forced to swim (duration of immobility); assay: Behavioural Despair Test in mouse; format: in vivo; settings: for Duration of Immobility (% change from ctrl): 30 min before test; for anti-depressant activity (in words): ip
Description: Nefopam and (+)-nefopam have been evaluated in the Behavioural Despair Test, a model which detects antidepressant activity. This test was conducted according to the method of Porsolt et al., (1977—Arch. Int. Pharmacodyn., 229:327-336), in which mice are forced to swim in a situation from which they cannot escape rapidly become immobile. Antidepressants decrease the duration of immobility.
Mice (20-27 g male Rj: NMRI) were individually placed in a cylinder (height=24 cm, diameter=13 cm) containing 10 cm water (22° C.) from which they cannot escape. The mice were placed in the water for 6 minutes and the duration of immobility during the last 4 minutes was measured. All compounds were administered i.p. 30 minutes before the test, and compared with a vehicle control group. Imipramine (32 mg/kg i.p.), administered under the same experimental conditions, was used as reference substance.

[4] = conventional release preparations; cited from earlier work

Row | SMILES | Nociception, hindpaw licking time, early phase ([2]; 30 mg/kg po) [%] | Nociception, hindpaw licking time, early phase ([2]; 60 mg/kg po) [%*] | Nociception, hindpaw licking time, early phase ([2]; 100 mg/kg po) [%*] | licking behaviour compared to vehicle control, first phase (in words) [2] | Nociception, hindpaw licking time, late phase ([2]; 30 mg/kg po) [%] | Nociception, hindpaw licking time, late phase ([2]; 60 mg/kg po) | Nociception, hindpaw licking time, late phase ([2]; 100 mg/kg po) [%*] | paw licking time compared to vehicle control (in words) [2] | licking behaviour, second phase (in words) [2] | Number of marbles buried (% change from ctrl) ([1]; 10 mg/kg ip) | Number of marbles buried (% change from ctrl) ([1]; 20 mg/kg ip) | Number of marbles buried (% change from ctrl) ([1]; 40 mg/kg ip) | antidepressant and anxiolytic activity (in words) [1] | Duration of Immobility (% change from ctrl) ([3]; 20 mg/kg ip) | Duration of Immobility (% change from ctrl) ([3]; 40 mg/kg ip) | Duration of Immobility (% change from ctrl) ([3]; 60 mg/kg ip) | anti-depressant activity (in words) [3] | also measured
1 | CN1C(=O)CC(=O)N(c2ccccc2)c2cc(Cl)ccc21 [Clobazam] | – | – | – | – | – | – | – | – | – | – | – | – | – | – | – | – | – | Number of marbles buried (% change from ctrl) ([1]; 32 mg/kg ip): −75 * % change from ctrl
2 | CN1CC[C@]23c4c5ccc(O)c4O[C@H]2[C@@H](O)C=C[C@H]3[C@H]1C5 [Morphine] | – | – | – | – | – | – | – | – | – | – | – | – | – | – | – | – | – | Nociception, hindpaw licking time, early phase ([2]; 80 mg/kg po): −98%*; Nociception, hindpaw licking time, late phase ([2]; 80 mg/kg po): −98%*
3 | CN(C)CCCN1c2ccccc2CCc2ccccc21 [Imipramine] | – | – | – | – | – | – | – | – | – | – | – | – | – | – | – | – | – | Duration of Immobility (% change from ctrl) ([3]; 32 mg/kg ip): −80 * % change from ctrl
4 | CN1CCOC(c2ccccc2)c2ccccc2C1 (racemic) [Nefopam, 5-methyl-1-phenyl-3,4,5,6-tetrahydro-1H-2,5-benzoxazocine hydrochloride] | −28 | −64 | −85 | significant reduction in licking behaviour | −41 | −63%* | −89 | dose-dependently decreased paw licking time | significant reduction in licking behaviour | −66 * % change from ctrl | −98 * % change from ctrl | −100 * % change from ctrl | significant antidepressant and anxiolytic activity | −42 | −85 * % change from ctrl | −100 * % change from ctrl | significant anti-depressant activity | elimination half-life [4]: four
5 | CN1CCO[C@@H](c2ccccc2)c2ccccc2C1 [(+)-Nefopam] | −40 | −59 | −86 | significant reduction in licking behaviour | −31 | −69% | −90 | dose-dependently decreased paw licking time | significant reduction in licking behaviour | −56 * % change from ctrl | −99 * % change from ctrl | −100 * % change from ctrl | significant antidepressant and anxiolytic activity | −38 | −92 * % change from ctrl | −100 * % change from ctrl | significant anti-depressant activity | –
